# Values quoted from earlier work, collected in patent publication US20090306403A1, “Production Process for Bicyclic Tetrahydropyrrole Compounds” (priority 2006, published 2009).
# Assays:
# [1] = biological target: sigma (σ-2) site (Homo sapiens, UniProt Q5BJF2); conditions: background statement in words
# [2] = biological target: sigma 1 (σ-1) site (Homo sapiens, UniProt Q99720); conditions: background statement in words
# sigma 1 (σ-1) site, sequence (Q99720 whole entry): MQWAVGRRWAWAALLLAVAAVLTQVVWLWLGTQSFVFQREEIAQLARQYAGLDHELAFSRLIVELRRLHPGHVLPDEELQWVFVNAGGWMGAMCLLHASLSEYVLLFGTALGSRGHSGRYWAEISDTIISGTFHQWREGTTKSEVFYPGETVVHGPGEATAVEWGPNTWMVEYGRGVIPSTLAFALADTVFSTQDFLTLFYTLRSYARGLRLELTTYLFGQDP
# sigma (σ-2) site, sequence (Q5BJF2 whole entry): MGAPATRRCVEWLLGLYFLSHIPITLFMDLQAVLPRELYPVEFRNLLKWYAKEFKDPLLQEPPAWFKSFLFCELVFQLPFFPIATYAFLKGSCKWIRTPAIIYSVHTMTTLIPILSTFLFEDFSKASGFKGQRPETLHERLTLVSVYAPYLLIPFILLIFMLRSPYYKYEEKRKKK
substance,measurement,setting,value
SKF 10047,affinity for the sigma (σ-2) site,[1],micromolar affinity
same,affinity for the sigma 1 (σ-1) site,[2],nanomolar affinity
